Here are results for eight molecules from US7772156B2, “Microbicidal compositions including a cyanodithiocarbimate and a second microbicide, and methods of using the same” (Buckman Laboratories International, Inc., priority 2006, dated 2010).

Several values for one entry are separate records, joined by “and”; a condition that tells them apart may be missing. Equal entries are not always repeated.

The test system of one data set is Aspergillus niger. Kind of data set: Fungal evaluation: growth prevention of Aspergillus niger in mineral salts-glucose medium, synergism by the method of Kull. It is filed as cell-based. Particulars: for X (QA/Qa+QB/Qb), Test 1 / X (QA/Qa+QB/Qb), Test 2 / X (QA/Qa+QB/Qb), Test 3: combination of S-chloromethyl-S'-hexylcyanodithioimidocarbimate (A) with the named second microbicide (B), Aspergillus niger, 7 days, 25° C., X<1 synergistic, X=1 additive, X>1 antagonistic; for QA = lowest concentration of compound A in the mixture which produced an end point: compound A in mixture with the named compound B; for Qb = lowest concentration of compound B acting alone which produced an end point: named compound B alone; for QB = lowest concentration of compound B in the mixture which produced an end point: named compound B in mixture with compound A. As to the method:
Mineral salts-glucose medium was used. To prepare the medium, the following ingredients were added to 1 liter of deionized water: 0.7 g of KH2PO4; 0.7 g of MgSO4·7H2O; 1.0 g of HN4NO3; 0.005 g of NaCl; 0.002 g of FeSO4·7H2O; 0.002 g ZnSO4·7H2O; 0.001 g of MnSO4·7H2O; 10 g of Glucose. The pH of the medium was adjusted to 6 with 1N NaOH. The medium was distributed in 5 ml amounts in test tubes and autoclaved at 121° C. for 20 minutes. The fungus, Aspergillus niger, was grown on potato dextrose agar slant for 5 to 10 days and a spore suspension prepared by washing down the spores from the slant into a sterile saline solution. After addition of the biocides in the desired concentrations in the sterile mineral salts-glucose medium, the fungal spore suspension was added. The final spore concentration was approximately 10^6 cfu/ml. The inoculated media was incubated at 25° C. for 7 days. The experimental design is termed a […] in which each test concentration of compound A is combined with each test concentration of compound B.
End points for the various mixtures were then compared with the end points for the pure active ingredients alone in concomitantly prepared flasks or test tubes.
When the sum of QA/Qa and QB/Qb is greater than one, antagonism is indicated. When the sum is equal to one, additivity is indicated. When the sum is less than one, synergism exists.
For: X<1 A and B are synergistic • X=1 A and B are additive • X>1 A and B are antagonistic For combinations of cyanodithiocarbimate with the selected second microbicide, the calculated values of X in each case are: […]

For data set [1] the following is noted: cited from earlier work.
Setting [2] is: complete prevention of growth of Aspergillus niger for seven days.

For the molecule `N#CSCSC#N` [MTC, Methylene-bis(thiocyanate)], in the data set with Aspergillus niger, the “X (QA/Qa+QB/Qb), Test 1” value stood at 0.64; the “X (QA/Qa+QB/Qb), Test 2” value was found to be 0.46; the “X (QA/Qa+QB/Qb), Test 3” value was 0.29. Besides, in the data set with Aspergillus niger (setting [2]), the “QA = lowest concentration of compound A in the mixture which produced an end point” value (shortened to “QA = lowest concentration”) was 0.05 ppm active ingredient, the “Qb = lowest concentration of compound B acting alone which produced an end point” value was greater than 0.7 ppm active ingredient and the “QB = lowest concentration of compound B in the mixture which produced an end point” value is given as 0.1 ppm active ingredient.
In the case of `CCCCCCCCn1sccc1=O` [2-N-octyl-4-isothiazolin-3-one], the “X (QA/Qa+QB/Qb), Test 1” value with Aspergillus niger is recorded as 0.64. In addition, in the data set with Aspergillus niger (setting [2]), the “QA = lowest concentration” value is given as 0.1 ppm active ingredient, the “Qb = lowest concentration of compound B acting alone which produced an end point” value is recorded as greater than 0.175 ppm active ingredient and the “QB = lowest concentration of compound B in the mixture which produced an end point” value came to 0.025 ppm active ingredient.
As to `O=C(CBr)c1ccc(O)cc1` [BHAP, 2-bromo-4′-hydroxyacetophenone], in the data set on Aspergillus niger, the “X (QA/Qa+QB/Qb), Test 1” value is on record as 1.22; the “X (QA/Qa+QB/Qb), Test 2” value was found to be 1.0; the “X (QA/Qa+QB/Qb), Test 3” value is recorded as 0.8. Further, in the data set on Aspergillus niger (setting [2]), the “QA = lowest concentration” value is recorded as 0.3 ppm active ingredient, the “Qb = lowest concentration of compound B acting alone which produced an end point” value is greater than 8.0 ppm active ingredient and the “QB = lowest concentration of compound B in the mixture which produced an end point” value was determined as 1.0 ppm active ingredient.
Regarding `N#CSCSc1nc2ccccc2s1` [TCMTB, 2-(Thiocyanomethylthio)benzothiazole], in the data set with Aspergillus niger, the “X (QA/Qa+QB/Qb), Test 1” value came to 0.27; the “X (QA/Qa+QB/Qb), Test 2” value is on record as 0.25; the “X (QA/Qa+QB/Qb), Test 3” value was determined as 0.7. In the data set with Aspergillus niger (setting [2]), the “QA = lowest concentration” value was 0.15 ppm active ingredient, the “Qb = lowest concentration of compound B acting alone which produced an end point” value worked out at 1.0 ppm active ingredient and the “QB = lowest concentration of compound B in the mixture which produced an end point” value amounted to 0.05 ppm active ingredient.
In the case of `CCCCNC(=O)OCC#CI` [IPBC, 3-iodo-2-propynyl butyl carbamate], in the data set on Aspergillus niger, the “X (QA/Qa+QB/Qb), Test 1” value is listed as 0.86 and the “X (QA/Qa+QB/Qb), Test 2” value is recorded as 0.3. Further, in the data set with Aspergillus niger (setting [2]), the “QA = lowest concentration” value is reported as 0.025 ppm active ingredient, the “Qb = lowest concentration of compound B acting alone which produced an end point” value was determined as 0.35 ppm active ingredient and the “QB = lowest concentration of compound B in the mixture which produced an end point” value amounted to 0.05 ppm active ingredient.
Take `O=C(CBr)OC/C=C\COC(=O)CBr` [BBAB, 1,4-bis(bromoacetoxy)-2-butene]: the solubility in water entry in data set [1] is reported as “extremely low”.
On to `CCCCCCSC(=NC#N)SCCl` [Compound A, S-Hexyl-S′-chloromethylcyanodithiocarbimate], for which the “Qa = concentration of compound A acting alone which produced an end point” value in the data set with Aspergillus niger (compound A alone, run concomitantly with the compound B, complete prevention of growth of Aspergillus niger for seven days) was 0.3 ppm active ingredient and 0.25 ppm active ingredient and 0.175 ppm active ingredient and 0.35 ppm active ingredient and 0.2 ppm active ingredient.
On to `CCCCCCCCn1sc(Cl)c(Cl)c1=O` [4,5-dichloro-2-N-octyl-4-isothiazolin-3-one], for which, in the data set on Aspergillus niger, the “X (QA/Qa+QB/Qb), Test 1” value came out at 0.7 and the “X (QA/Qa+QB/Qb), Test 2” value was found to be 0.5. In addition, in the data set on Aspergillus niger (setting [2]), the “QA = lowest concentration” value came to 0.05 ppm active ingredient, the “Qb = lowest concentration of compound B acting alone which produced an end point” value is listed as 0.2 ppm active ingredient and the “QB = lowest concentration of compound B in the mixture which produced an end point” value is given as 0.1 ppm active ingredient.
